Measured values taken from ChEMBL document CHEMBL1147774, “Synthesis of N-benzylated-2-aminoquinolines as ligands for the Tec SH3 domain” (Bioorg Med Chem Lett, 2006).

Target: T1, Tyrosine-protein kinase Tec (Homo sapiens, UniProt P42680)
T1 sequence (P42680 whole entry): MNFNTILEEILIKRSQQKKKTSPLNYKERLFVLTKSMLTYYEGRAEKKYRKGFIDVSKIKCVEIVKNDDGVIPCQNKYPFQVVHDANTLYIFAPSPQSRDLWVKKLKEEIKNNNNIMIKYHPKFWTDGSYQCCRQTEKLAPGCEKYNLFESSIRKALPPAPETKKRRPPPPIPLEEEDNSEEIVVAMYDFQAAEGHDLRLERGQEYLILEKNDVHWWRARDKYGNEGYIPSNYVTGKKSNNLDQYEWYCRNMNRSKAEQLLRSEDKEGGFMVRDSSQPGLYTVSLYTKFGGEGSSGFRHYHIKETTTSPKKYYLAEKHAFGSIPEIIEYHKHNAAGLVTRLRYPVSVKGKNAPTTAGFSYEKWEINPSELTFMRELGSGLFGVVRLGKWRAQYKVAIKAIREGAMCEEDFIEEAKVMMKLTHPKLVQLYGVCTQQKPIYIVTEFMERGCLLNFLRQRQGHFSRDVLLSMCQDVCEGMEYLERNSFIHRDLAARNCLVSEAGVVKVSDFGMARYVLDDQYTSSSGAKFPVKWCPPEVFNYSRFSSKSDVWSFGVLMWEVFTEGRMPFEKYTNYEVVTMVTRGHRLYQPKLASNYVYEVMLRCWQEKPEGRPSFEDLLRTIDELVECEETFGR
Assay: Binding affinity to Tec SH3 domain

| SMILES | Kd [µM] |
| --- | --- |
| Fc1ccccc1CNc1ccc2ccccc2n1 | 208 |
| Oc1cccc(CNc2ccc3ccccc3n2)c1 | 234 |
| c1c[nH]c(CNc2ccc3ccccc3n2)c1 | 285 |
| Fc1cccc(CNc2ccc3ccccc3n2)c1 | 177 |
| Oc1ccc(CNc2ccc3ccccc3n2)cc1 | 292 |
| c1ccc(CNc2ccc3ccccc3n2)cc1 | 193 |
